Measurements published in patent US20100056526A1, “HETEROMONOCYCLIC COMPOUND AND USE THEREOF” (Takeda Pharmaceutical Company Limited, priority 2006, published 2010).

Columns and labels:
human AT1 receptor = biological target: T1, human AT1 receptor (Homo sapiens, UniProt P30556); test: Binding assay using human AT1 receptor-expressing CHO-K1 cell membrane fraction ([125I]-angiotensin II); conditions: 22.5 pM [125I]-angiotensin II, 9 μg AT1 membrane, 1 hr room temperature; read-out: AT1 receptor binding inhibitory action (IC50 (nM))
T1 construct: expressed in transfected cells; host or cells: CHO-K1
T1 sequence (P30556 1-359): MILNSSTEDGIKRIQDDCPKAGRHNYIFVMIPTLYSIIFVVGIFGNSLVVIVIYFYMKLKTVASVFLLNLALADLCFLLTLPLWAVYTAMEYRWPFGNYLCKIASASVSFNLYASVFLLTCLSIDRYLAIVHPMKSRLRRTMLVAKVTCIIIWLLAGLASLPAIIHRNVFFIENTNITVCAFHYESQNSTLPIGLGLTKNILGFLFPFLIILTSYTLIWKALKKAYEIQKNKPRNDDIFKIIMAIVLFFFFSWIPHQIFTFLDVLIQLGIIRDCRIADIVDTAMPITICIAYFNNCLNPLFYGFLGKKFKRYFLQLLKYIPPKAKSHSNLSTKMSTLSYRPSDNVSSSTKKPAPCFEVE
Method: The membrane fraction for human AT1 receptor binding assay was prepared as follows. CHO-K1 cell capable of stable expression of human AT1 receptor was cultured, recovered, suspended in homogenize buffer (10 mM NaHCO3 (pH 7.4), 5 mM EDTA, 1×Complete EDTA free) [manufactured by Roche, Switzerland], and homogenized. The homogenate was centrifuged at low-speed (900×g, 10 min, 4° C.), and the supernatant was recovered and ultracentrifuged (90,000×g, 1 hr, 4° C.). The supernatant was discarded, and the pellets were resuspended in resuspension buffer (50 mM Tris (pH 7.4), 1 mM EDTA, 1×Complete EDTA free).
The binding assay was performed in the presence of 22.5 pM [^125I]-angiotensin II [manufactured by PerkinElmer, USA], 9 μg of AT1 membrane and test compound in 100 μL (total reaction volume) of reaction buffer (50 mM Tris (pH 7.4), 10 mM MgCl2 supplemented or not supplemented with 0.3 mg/mL fatty acid-free bovine serum albumin [manufactured by Wako Pure Chemical Industries, Ltd., Japan]). The reaction mixture was incubated in 96 well polypropylene plate for 1 hr at room temperature, and the reaction was quenched by rapid filtration (96 well cell harvester) through a GF/C filter treated with wash buffer (50 mM Tris (pH 7.4)). Subsequently, the filter was washed 5 times with 0.3 mL of ice-cooled wash buffer. The filter was air-dried, and [^125I]-angiotensin II binding radioactivity was assayed with Top Count scintillation counter. Total binding was measured in the presence of 1% DMSO and nonspecific binding was measured in the presence of 1 μM CV-11974. The binding data was analyzed by GraphPad Prism program and the IC50 value (compound concentration showing 50% of the maximum value of inhibition percent) of the test compound was calculated.

PPARγ = biological target: T2, PPARγ (Homo sapiens, UniProt P37231); test: Evaluation of PPARγ activating action (luciferase reporter in PPARγ:RXRα:4ERPP/CHO-K1 cells); type: cell-based; conditions: CHO-K1, 24 h; test compound 10^−6 M; luciferase activity relative to control compound X (1 μM) = 100%, non-administration group = 0%; read-out: PPARγ activating action (activation % (10^−6 M))
T2 construct: expressed in transfected cells; host or cells: CHO-K1
T2 sequence (P37231 1-477 isoform P37231-2): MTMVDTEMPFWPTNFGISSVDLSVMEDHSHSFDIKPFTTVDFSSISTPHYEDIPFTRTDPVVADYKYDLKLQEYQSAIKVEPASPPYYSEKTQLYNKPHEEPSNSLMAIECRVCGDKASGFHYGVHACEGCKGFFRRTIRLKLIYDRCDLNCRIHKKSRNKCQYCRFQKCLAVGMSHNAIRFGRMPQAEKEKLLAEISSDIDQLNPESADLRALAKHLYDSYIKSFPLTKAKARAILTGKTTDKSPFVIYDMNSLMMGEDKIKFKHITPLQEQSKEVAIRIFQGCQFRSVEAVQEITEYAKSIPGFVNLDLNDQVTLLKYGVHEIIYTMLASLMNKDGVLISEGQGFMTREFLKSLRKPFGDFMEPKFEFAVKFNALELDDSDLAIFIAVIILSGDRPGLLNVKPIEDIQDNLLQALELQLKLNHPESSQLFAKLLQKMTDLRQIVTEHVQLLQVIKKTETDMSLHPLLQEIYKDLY
T2 sequence (P19793 1-462 partner): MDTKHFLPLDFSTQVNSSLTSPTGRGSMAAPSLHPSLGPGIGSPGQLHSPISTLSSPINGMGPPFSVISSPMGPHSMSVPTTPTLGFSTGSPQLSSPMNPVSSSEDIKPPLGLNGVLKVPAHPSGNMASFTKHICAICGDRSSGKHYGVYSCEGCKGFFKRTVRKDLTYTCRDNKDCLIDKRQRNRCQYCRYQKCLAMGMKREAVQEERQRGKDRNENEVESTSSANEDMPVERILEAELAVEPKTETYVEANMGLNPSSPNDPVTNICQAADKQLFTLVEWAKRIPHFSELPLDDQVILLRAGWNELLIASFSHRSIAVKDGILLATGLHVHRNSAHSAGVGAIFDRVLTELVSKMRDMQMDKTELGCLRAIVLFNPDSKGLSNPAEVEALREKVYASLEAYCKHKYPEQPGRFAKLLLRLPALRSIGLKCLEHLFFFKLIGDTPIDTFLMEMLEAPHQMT
Method: PPARγ:RXRα:4ERPP/CHO-K1 cells obtained in the following Reference Example 5 were cultured in F12 medium [manufactured by INVITROGEN, USA] containing 10% fetal bovine serum [manufactured by MOREGATE, Australia], seeded in a 96-well half area white plate [manufactured by Corning Coster Corporation, USA] at the density of 5×10^3 cells/well and cultured in a CO2 gas incubator at 37° C. overnight.
Then the medium was removed from the 96-well half area white plate, 45 μl of Ham's F12 medium containing 0.1% fatty acid-free bovine serum albumin (BSA) and 5 μl of test compound were added, and the cells were cultured in a CO2 gas incubator at 37° C. for 1 day. The medium was removed and 20 μl of PicaGene 7.5 [manufactured by TOYO INK MFG. CO., LTD.,.Japan] diluted 2-fold with HBSS (HANKS' BALANCED SALT SOLUTION) [manufactured by BIO WHITTAKER, USA] was added. After stirring, the luciferase activity was determined using 1420 ARVO Multilabel Counter [manufactured by PerkinElmer, USA].
The percent (%) was calculated from the luciferase activity of each test compound when the luciferase activity of the control compound (compound X: 5-[3-(4-{[2-(2-furyl)-5-methyl-1,3-oxazol-4-yl]methoxy}-3-methoxyphenyl)propyl]-1,3-oxazolidine-2,4-dione) (1 μM) was 100% and that of the test compound non-administration group was 0%.
A CHO-K1 cell cultured in a 150 cm^2 cell culture flask [manufactured by Corning Costar Corporation, USA] containing Ham's F12 medium [manufactured by INVITROGEN, USA] supplemented with 10% fetal bovine serum [manufactured by INVITROGEN, USA] was scraped by treating with 0.5 g/L trypsin-0.2 g/L EDTA (ethylenediaminetetraacetic acid) [manufactured by Life Technologies, Inc., USA], and then the cell was washed with PBS (Phosphate-buffered saline) [manufactured by INVITROGEN, USA], centrifuged (1000 rpm, 5 minutes) and suspended in PBS. Subsequently, DNA was introduced into the cell under the conditions shown below using GENE PULSER [manufactured by Bio-Rad Laboratories, USA].
Namely, to a cuvette having a 0.4 cm gap were added 8×10^6 cells and 10 μg of plasmid pVgRXR2-hPPARγ obtained in Reference Example 4 and 10 μg of reporter plasmid pGL3-4ERPP-TK neo obtained in Reference Example 3, which was subjected to electroporation at the voltage of 0.25 kV under the capacitance of 960 μF. Subsequently, the cell was transferred into a F12 medium containing 10% fetal bovine serum and cultured for 24 hours, and then the cell was scraped again and centrifuged, and then suspended in Ham's F12 medium containing 10% fetal bovine serum supplemented with 500 μg/ml of Geneticin [manufactured by INVITROGEN, USA] and 250 μg/ml of Zeocin [manufactured by INVITROGEN, USA]. The obtained suspension was diluted to the density of 10^4 cells/ml and inoculated in a 96-well plate [manufactured by Corning Costar Corporation, USA], which was cultured in a CO2 gas incubator at 37° C., whereby obtaining a Geneticin- and Zeocin-resistant transformant.
Subsequently, after the transformant cell line thus obtained was cultured in a 24-well plate [manufactured by Corning Costar Corporation, USA], a cell line in which the luciferase was expressed and induced, i.e., PPARγ:RXRα:4ERPP/CHO-K1 cell was selected by the addition of 10 μM pioglitazone hydrochloride.

| SMILES | IC50 (human AT1 receptor) | activation at 1 µM (PPARγ) |
| --- | --- | --- |
| CCSc1nc(C)c(Cc2ccccc2)c(=O)n1Cc1ccc(-c2ccccc2-c2noc(=O)[nH]2)cc1 [Example 3, 5-benzyl-2-(ethylthio)-6-methyl-3-{[2′-(5-oxo-4,5-dihydro-1,2,4-oxadiazol-3-yl)biphenyl-4-yl]methyl}pyrimidin-4(3H)-one] | 2.5 nM | 57.1% |
| CCOc1nc(C)c(Cc2ccccc2)c(=O)n1Cc1ccc(-c2ccccc2-c2noc(=O)[nH]2)cc1 [Example 4, 5-benzyl-2-ethoxy-6-methyl-3-{[2′-(5-oxo-4,5-dihydro-1,2,4-oxadiazol-3-yl)biphenyl-4-yl]methyl}pyrimidin-4(3H)-one] | 1.9 nM | 35.8% |
| CCCc1nc(C)c(CC2CCCCO2)c(=O)n1Cc1ccc(-c2ccccc2-c2noc(=O)[nH]2)cc1 (centres unmarked) [Example 7, 6-methyl-3-{[2′-(5-oxo-4,5-dihydro-1,2,4-oxadiazol-3-yl)biphenyl-4-yl]methyl}-2-propyl-5-(tetrahydro-2H-pyran-2-ylmethyl)pyrimidin-4(3H)-one] | 1.4 nM | 42.6% |
| CCCc1nc(C)c(-c2ccc(OC(C)C)cc2)c(=O)n1Cc1ccc(-c2ccccc2-c2noc(O)n2)cc1 [Example 28, 5-(4-isopropoxyphenyl)-6-methyl-3-{[2′-(5-oxo-4,5-dihydro-1,2,4-oxadiazol-3-yl)biphenyl-4-yl]methyl}-2-propylpyrimidin-4(3H)-one] | 1.6 nM | 16.2% |
| CCCCc1nc(C)n(Cc2cccs2)c(=O)c1Cc1ccc(-c2ccccc2-c2noc(=O)[nH]2)cc1 [Example 32, 6-butyl-2-methyl-5-{[2′-(5-oxo-4,5-dihydro-1,2,4-oxadiazol-3-yl)biphenyl-4-yl]methyl}-3-(2-thienylmethyl)pyrimidin-4(3H)-5 one] | 1.3 nM | 55.6% |
| CCCCc1nc(C)n(CC(=O)C(C)(C)C)c(=O)c1Cc1ccc(-c2ccccc2-c2noc(=O)[nH]2)cc1 [Example 37, 6-butyl-3-(3,3-dimethyl-2-oxobutyl)-2-methyl-5-{[2′-(5-oxo-4,5-dihydro-1,2,4-oxadiazol-3-yl)biphenyl-4-yl]methyl}pyrimidin-4(3H)-one] | 1.3 nM | 29.8% |
| CCCCc1nc(C)n(CC23CC4CC(CC(C4)C2)C3)c(=O)c1Cc1ccc(-c2ccccc2-c2noc(=O)[nH]2)cc1 [Example 42, 3-(1-adamantylmethyl)-6-butyl-2-methyl-5-{[2′-(5-oxo-4,5-dihydro-1,2,4-oxadiazol-3-yl)biphenyl-4-yl]methyl}pyrimidin-4(3H)-one] | 1.5 nM | 61.2% |
| CCCCc1nc(C)n(Cc2ccccc2)c(=O)c1Cc1ccc(-c2ccccc2-c2noc(=O)[nH]2)cc1 [Example 47, 3-benzyl-6-butyl-2-methyl-5-{[2′-(5-oxo-4,5-dihydro-1,2,4-oxadiazol-3-yl)biphenyl-4-yl]methyl}pyrimidin-4(3H) -one] | 1.4 nM | 61.2% |
| CCCCc1nc(C)n(CC2CCCCC2)c(=O)c1Cc1ccc(-c2ccccc2-c2noc(=O)[nH]2)cc1 [Example 48, 6-butyl-3-(cyclohexylmethyl)-2-methyl-5-{[2′-(5-oxo-4,5-dihydro-1,2,4-oxadiazol-3-yl)biphenyl-4-yl]methyl}pyrimidin-4(3H)-one] | 1.8 nM | 68.8% |
| CCCCc1nc(C)n(Cc2ccccn2)c(=O)c1Cc1ccc(-c2ccccc2-c2noc(=O)[nH]2)cc1 [Example 50, 6-butyl-2-methyl-5-{[2′-(5-oxo-4,5-dihydro-1,2,4-oxadiazol-3-yl)biphenyl-4-yl]methyl}-3-(pyridin-2-ylmethyl)pyrimidin-4(3H)-one] | 1.7 nM | 34.3% |
| CCCCc1nc(COC)n(CC(C)(C)C)c(=O)c1Cc1ccc(-c2ccccc2-c2noc(=O)[nH]2)cc1 [Example 51, 6-butyl-3-(2,2-dimethylpropyl)-2-(methoxymethyl)-5-{[2′-(5-oxo-4,5-dihydro-1,2,4-oxadiazol-3-yl)biphenyl-4-yl]methyl}pyrimidin-4(3H)-one] | 1.5 nM | 19.6% |
| CCCc1nc(C(F)F)n(-c2ccc(OC)cc2)c(=O)c1Cc1ccc(-c2ccccc2-c2noc(=O)[nH]2)cc1 [Example 410] | 2.1 nM | – |
